Experimental data from patent publication US5069909A, “Transdermal administration of buprenorphine” (Cygnus Therapeutic Systems, priority 1990, dated 1991).
≈ marks a conversion by molar mass, not a printed value. Structures can show the parent of a compound that is named as a salt. Where two headings read alike, the source gives them in different places.

What was measured:
[1] = cited from earlier work
[2] = pKa; type: physicochemical
[3] = Octanol-water partition coefficient
[4] = in vitro; type: in vitro ADME, Human; conditions: for Jskin: n=3; for Papp: human, P = J/Cs, read-out: P (permeability coefficient) (converted)
Method: (§1) Stirring was set at 200 rpm throughout the experiment. […] The samples were assayed by HPLC.

[5] = type: in vitro ADME, Human; conditions: 32° C.; for Jskin: aqueous (deionized water) saturated solution, side-by-side cells; for increase of skin flux upon stripping (fold): stripped vs heat-separated epidermis
Method: as §1
In order to determine the principal diffusional barrier of skin in transporting both base and HCl salt across the membrane, the permeating of drug through heat-separated epidermis was compared with stripped epidermis. Stripping removes most of the stratum corneum. The skin was stripped with Scotch brand cellophane tape to remove stratum corneum twenty times. Permeations of the base and the HCl salt through heat-separated epidermis and stripped epidermis from saturated aqueous solution at 32° C. are shown in Table 7.

[6] = physchem; type: physicochemical; conditions: for solubility thermodynamic: read-out: Cs
Method: Solubility Determination: The solubility of buprenorphine base and HCl salt in various vehicles was obtained by equilibrating a large excess of solute with the vehicle in a water-jacketed glass container. Temperature was maintained at 32° C. by a constant temperature water bath and vigorous mixing with a magnetic stirring bar. Equilibrium time for all the studies was ≥48 hr. An excess of solute was always present in the slurries. Samples were taken, filtered through glass wool-tipped pipets, and an appropriate volume of filtrate was diluted with acetonitrile and assayed by HPLC. The procedure was repeated three times and an average value calculated.

[7] = flow-through cells

In the case of `CO[C@]12CC[C@@]3(C[C@@H]1[C@](C)(O)C(C)(C)C)[C@H]1Cc4ccc(O)c5c4[C@@]3(CCN1CC1CC1)[C@H]2O5` [Buprenorphine, (5α, 7α (s))-17-(cyclopropylmethyl)-α (1,1-dimethylethyl)-4,5-epoxy18,19-dihydro-3-hydroxy-6-methoxy-α-methyl-6,14-ethenomorphinan-7-methanol], the “CIT (clearance, ClT)” value ([1]; Daily dose […] (i.v., tid)) is listed as 77 ± 5 L/h, the “T1/2 β” value ([1]; Daily dose […] (i.v., tid)) is listed as 3.1 ± 0.6 h and the Vdss ([1]; in vivo, iv) is listed as 188 ± 35 L. The “MEC (analgesics)” value ([1]; in vivo) was 0.5 to 0.7 ng/mL, the pKa [2] was 8.4 and the logP [3] was 3.09. The Jskin ([4]; equilibrium pH 5.0, 32° C.) was 0.59 ± 0.13 μg/cm^2 /h, the Jskin ([4]; equilibrium pH 6.0, 32° C.) was 0.48 ± 0.02 μg/cm^2 /h and the Jskin ([4]; equilibrium pH 7.0, 32° C.) was 0.14 ± 0.01 μg/cm^2 /h. It also gave a Jskin ([4]; equilibrium pH 7.9, 32° C.) of 0.05 ± 0.02 μg/cm^2 /h, a Jskin ([4]; equilibrium pH 8.7, 32° C.) of 0.03 ± 0.01 μg/cm^2 /h and a Papp ([4]; equilibrium pH 5.0, 32° C.) of 0.242 ×10⁻⁶ cm/s. The Papp ([4]; equilibrium pH 6.0, 32° C.) was 1.64 ×10⁻⁶ cm/s, the Papp ([4]; equilibrium pH 7.0, 32° C.) was 6.39 ×10⁻⁶ cm/s and the Papp ([4]; equilibrium pH 7.9, 32° C.) was 23.1 ×10⁻⁶ cm/s. The Papp ([4]; equilibrium pH 8.7, 32° C.) was 58.3 ×10⁻⁶ cm/s, the “skin flux as a function of pH (in words)” value ([4]; pH 8.7 to 5) was “increased as the pH was decreased to 5” and the “permeability coefficient as a function of pH (in words)” value ([4]; pH raised to 8.7) was “increased as the pH was raised to 8.7”. For the same molecule, the Jskin ([5]; epidermis) was 0.37 (0.35, 0.39) μg/cm^2 /h, the Jskin ([5]; stripped epidermis) was 2.2 ± 0.3 μg/cm^2 /h and the “increase of skin flux upon stripping (fold)” value [5] was 6 fold. It also gave a Solubility ([6]; Transcutol, 32° C.) of 88600 µg/mL (≈ 189000 µM), a Solubility ([6]; Water (deionized), 32° C.) of 8 µg/mL (≈ 17.1 µM) and a solubility ([6]; Water (deionized), 32° C., read-out: Solubility) of 8 µg/mL (≈ 17.1 µM). The solubility thermodynamic ([6]; equilibrium pH 5.0, 32° C.) was 692 µg/mL (≈ 1480 µM), the solubility thermodynamic ([6]; equilibrium pH 6.0, 32° C.) was 82 µg/mL (≈ 175 µM) and the solubility thermodynamic ([6]; equilibrium pH 7.0, 32° C.) was 6 µg/mL (≈ 12.8 µM). For the same molecule, the solubility thermodynamic ([6]; equilibrium pH 7.9, 32° C.) was 0.6 µg/mL (≈ 1.28 µM), the solubility thermodynamic ([6]; equilibrium pH 8.7, 32° C.) was 0.14 µg/mL (≈ 0.299 µM) and the solubility ([6]; organic solvent or mixture, Ethanol (absolute), 32° C., read-out: Solubility) was 58400 µg/mL (≈ 125000 µM). It also gave a solubility ([6]; organic solvent or mixture, Isopropyl myristate, 32° C., read-out: Solubility) of 13300 µg/mL (≈ 28400 µM), a solubility ([6]; organic solvent or mixture, Propylene Glycol, 32° C., read-out: Solubility) of 5100 µg/mL (≈ 10900 µM) and a solubility ([6]; organic solvent or mixture, Propylene glycol-monolaurate, 32° C., read-out: Solubility) of 37900 µg/mL (≈ 81000 µM). For the same molecule, the solubility ([6]; organic solvent or mixture, Transcutol, 32° C., read-out: Solubility) was 88600 µg/mL (≈ 189000 µM) and the “solubility as a function of pH (in words)” value ([6]; pH 5.0 to 8.7) was “decreases exponentially as the pH increases”.
With `CO[C@@]12CC[C@@]3(C[C@@H]1[C@](C)(O)C(C)(C)C)[C@H]1Cc4ccc(O)c5c4[C@@]3(CCN1CC1CC1)[C@H]2O5` [Buprenorphine HCl] the logP [3] was 2.63, the “skin flux of HCl salt vs base (in words)” value ([5]; aqueous saturated solution) was “higher than that of the base form” and the Jskin ([5]; epidermis) was 2.1 (2.4, 1.7) μg/cm^2 /h. The Jskin ([5]; stripped epidermis) was 20.5 ± 4.3 μg/cm^2 /h, the “increase of skin flux upon stripping (fold)” value [5] was 10 fold and the “skin flux from saturated solutions, comparison (in words)” value [7] was “relatively higher penetration than the base form”. For the same molecule, the “solubility (in words)” value [6] was “considerably higher than the free base form's”, the Solubility ([6]; deionized water) was 12000 µg/mL and the solubility ([6]; deionized water, water) was 12000 µg/mL. It also gave a solubility ([6]; propylene glycol, organic solvent or mixture) of 22500 µg/mL.
